Experimental data taken from patent US20260049104A1, “PEPTIDES WITH ANTIMICROBIAL PROPERTIES” (priority 2022, published 2026).
In brackets after ≈: the same amount, converted by molar mass. Where two headings read alike, the source gives them in different places.

Experiments:
[1] = system: Gram-positive and Gram-negative bacteria; conditions: E. cloacae; for antibacterial activity: panel of E. coli, K. pneumoniae, A. baumannii, E. faecalis and S. aureus, preliminary screening
Procedure: (§1) MIC screening of the peptides against a panel of ATCC and clinical strains was performed using broth microdilution method.^1 Briefly, peptides stock solutions in DMSO (0.1/G TFA) were diluted into Mueller Hinton Broth (MHB), followed by two-fold serial dilution in a 96-well plate. Bacteria culture in mid-log phase was diluted into MHB to yield […] colony-forming units (CFU)/mL. Equal volume of the starting inoculum was added to the peptide samples, then incubated for 18-20 h (37° C., 120 rpm). OD600 of the samples was then measured using Tecan Infinite M200 (TECAN, Männedorf, Switzerland). MIC is defined as the lowest peptide concentration to achieve more than 90% reduction in OD600 relative to the drug-free control. The experiments were repeated three times. Colistin-resistant clinical isolates are a kind gift from Dr. Jeanette Koh (National University Hospital, Singapore). Multidrug-resistant clinical isolates are a kind gift from Dr. Lakshminarayanan Rajamani (Singapore Eye Research Institute, Singapore).
(§2) Kanamycin and ampicillin were used as antibacterial control agents. […] Then, sequential 2-fold serial dilutions of the mix were diluted in 50 μL MH broth and 50 μL cell cultures were added to wells. […] All assays were carried out in triplicate.

Enterococcus faecalis = type: cell-based; conditions: strain not given, Table 14, preliminary screening
Procedure: MIC values for compounds (1-11) were assessed using 96-well plate format with Mueller Hinton (MH) broth, using the two-fold dilution method, previously reported in standard methods provided by Clinical and Laboratory Standards S8 Institute (CLSI). Kanamycin and ampicillin were used as antibacterial control agents. According to the reference, the compounds (1-11) were first dissolved in DMSO+0.1% TFA at a concentration of 3.2 mg/mL and 4 μL was serially diluted in 96 μL of MH broth. Then, sequential 2-fold serial dilutions of the mix were diluted in 50 μL MH broth and 50 μL cell cultures were added to wells. […] All assays were carried out in triplicate.

Pseudomonas aeruginosa = type: cell-based; conditions: Table 15, unit inferred
Excerpt: The experiments were repeated three times.

Staphylococcus aureus = Staphylococcus aureus ATCC 29737; Table 14, preliminary screening
Procedure: as §1, §2

Enterobacter cloacae = conditions: for MIC value: Table 15, unit inferred
Procedure: as §1, §2

Klebsiella pneumoniae = conditions: for MIC value: Table 15, unit inferred
Procedure: as §1, §2

Escherichia coli = conditions: for MIC value: Table 15, unit inferred
Procedure: as §1, §2

Acinetobacter baumannii = conditions: for MIC value: Table 15, unit inferred
Procedure: as §1, §2

For `CC(C)C[C@H](NC(=O)[C@H]1NC(=O)[C@H](Cc2ccccc2)NC(=O)[C@@H](NC(=O)[C@@H](NC(=O)[C@H](CCC(=O)O)NC(=O)[C@H](C)NC(=O)[C@@H](NC(=O)[C@H](CO)NC(=O)[C@H](C)N)[C@@H](C)O)[C@@H](C)O)Cc2c[nH]c3cc(ccc23)C1CCCN)C(=O)N[C@@H](CC(=O)O)C(=O)N[C@H]1Cc2c[nH]c3cc(ccc23)C(CCCN)[C@@H](C(=O)N[C@@H](CO)C(=O)N[C@@H](Cc2ccccc2)C(=O)O)NC(=O)[C@H](CCCCN)NC1=O` (stereo partly shown) [Compound 21], the antibacterial activity [1] was “no activity”.

With `CC[C@H](C)[C@H](NC(=O)CNC(=O)[C@H](CC(=O)O)NC(=O)[C@H](CC(=O)O)NC(=O)[C@H](CC(=O)O)NC(=O)[C@H](CO)NC(=O)[C@@H](N)CO)C(=O)N[C@H]1Cc2ccc(cc2)C(CCCN)[C@@H](C(=O)N[C@H](C(=O)N[C@H](C(=O)N[C@H]2Cc3c[nH]c4cc(ccc34)C(CCNC(=N)N)[C@@H](C(=O)N[C@@H](CCCNC(=N)N)C(=O)O)NC(=O)[C@H](CC(=O)O)NC2=O)[C@@H](C)O)[C@@H](C)O)NC(=O)[C@H](Cc2ccccc2)NC1=O` (stereo partly shown) [Compound 22] the antibacterial activity [1] was “no activity”.

Work on `CC(C)[C@@H]1NC(=O)[C@@H](NC(=O)CNC(=O)[C@H](CCC(=O)O)NC(=O)CNC(=O)[C@@H](N)CCCNC(=N)N)Cc2c[nH]c3cc(ccc23)C(CCNC(=N)N)[C@@H](C(=O)N[C@@H](C)C(=O)N[C@@H](Cc2ccc(O)cc2)C(=O)N[C@H]2Cc3c[nH]c4cc(ccc34)C(CCCN)[C@@H](C(=O)N[C@@H](CCCNC(=N)N)C(=O)N[C@@H](Cc3ccccc3)C(=O)O)NC(=O)[C@H](C)NC2=O)NC1=O` (stereo partly shown) [Compound 24, xenorceptide D1] yielded an MIC (Enterococcus faecalis) of 64 µg/mL (≈ 36 µM), an MIC value (Pseudomonas aeruginosa; Pseudomonas aeruginosa DM4150R) of 32 µg/mL (≈ 18 µM) and an MIC value (Pseudomonas aeruginosa; Pseudomonas aeruginosa DM23376) of 16 µg/mL (≈ 9 µM). For the same molecule, the MIC value (Pseudomonas aeruginosa; Pseudomonas aeruginosa DR4877/07) was 16 µg/mL (≈ 9 µM), the MIC value (Pseudomonas aeruginosa; Pseudomonas aeruginosa DR5790/07) was 16 µg/mL (≈ 9 µM) and the MIC value range ([1]; E. coli, A. baumannii and K. pneumoniae) was 1 to 4 µg/mL. It also gave an MIC (Staphylococcus aureus) greater than 64 µg/mL, an MIC value (Enterobacter cloacae; Enterobacter cloacae ATCC 13047) of 4 µg/mL (≈ 2.25 µM) and an MIC value (Enterobacter cloacae; Enterobacter cloacae CRE1010) of 4 µg/mL (≈ 2.25 µM). The MIC value (Enterobacter cloacae; Enterobacter cloacae CRE1014) was 8 µg/mL (≈ 4.5 µM), the MIC value (Enterobacter cloacae; Enterobacter cloacae CRE1015) was 8 µg/mL (≈ 4.5 µM) and the MIC value (Enterobacter cloacae; Enterobacter cloacae CRE1016) was 8 µg/mL (≈ 4.5 µM). It also gave an MIC value (Enterobacter cloacae; Enterobacter cloacae CRE1017) of 8 µg/mL (≈ 4.5 µM), an MIC (Enterobacter cloacae; Enterobacter cloacae, strain not given, Table 14, preliminary screening) of 4 µg/mL (≈ 2.25 µM) and an MIC value (Klebsiella pneumoniae; ATCC 25922, printed under Klebsiella pneumoniae) of 1 µg/mL (≈ 0.562 µM). The MIC value (Klebsiella pneumoniae; CRE1006, Klebsiella pneumoniae) was 2 µg/mL (≈ 1.12 µM), the MIC (Klebsiella pneumoniae; Klebsiella pneumoniae ATC 700603, Table 14, preliminary screening) was 2 µg/mL (≈ 1.12 µM) and the MIC value (Klebsiella pneumoniae; Klebsiella pneumoniae ATCC 700603) was 2 µg/mL (≈ 1.12 µM). The MIC value (Klebsiella pneumoniae; Klebsiella pneumoniae CRE 1007) was 4 µg/mL (≈ 2.25 µM), the MIC value (Klebsiella pneumoniae; Klebsiella pneumoniae CRE1008) was 4 µg/mL (≈ 2.25 µM) and the MIC value (Klebsiella pneumoniae; Klebsiella pneumoniae CRE1011) was 2 µg/mL (≈ 1.12 µM). For the same molecule, the MIC value (Klebsiella pneumoniae; Klebsiella pneumoniae CRE1012) was 4 µg/mL (≈ 2.25 µM), the MIC (Escherichia coli; Escherichia coli ATCC 25922, Table 14, preliminary screening) was 1 µg/mL (≈ 0.562 µM) and the MIC value (Escherichia coli; Escherichia coli M2) was 4 µg/mL (≈ 2.25 µM). The MIC value (Escherichia coli; Escherichia coli M6) was 2 µg/mL (≈ 1.12 µM), the MIC value (Escherichia coli; Escherichia coli M10) was 2 µg/mL (≈ 1.12 µM) and the MIC value (Escherichia coli; Escherichia coli M11) was 2 µg/mL (≈ 1.12 µM). For the same molecule, the MIC value (Acinetobacter baumannii; Acinetobacter baumanii ACβA1001) was 4 µg/mL (≈ 2.25 µM), the MIC value (Acinetobacter baumannii; Acinetobacter baumanii ACβA1002) was 4 µg/mL (≈ 2.25 µM) and the MIC value (Acinetobacter baumannii; Acinetobacter baumanii ACβA1003) was 4 µg/mL (≈ 2.25 µM). For the same molecule, the MIC value (Acinetobacter baumannii; Acinetobacter baumanii ACβA1004) was 4 µg/mL (≈ 2.25 µM), the MIC (Acinetobacter baumannii; Acinetobacter baumanii ATCC 19606, Table 14, preliminary screening) was 2 µg/mL (≈ 1.12 µM) and the MIC value (Acinetobacter baumannii; Acinetobacter baumanii ATCC 19606) was 2 µg/mL (≈ 1.12 µM).

`CC(C)[C@H](NC(=O)[C@H](Cc1c[nH]c2ccccc12)NC(=O)CNC(=O)[C@H](CCC(=O)O)NC(=O)CNC(=O)[C@@H](N)CCCNC(=N)N)C(=O)N[C@@H](CCCNC(=N)N)C(=O)N[C@@H](C)C(=O)N[C@@H](Cc1ccc(O)cc1)C(=O)N[C@H]1Cc2c[nH]c3cc(ccc23)C(CCCN)[C@@H](C(=O)N[C@@H](CCCNC(=N)N)C(=O)N[C@@H](Cc2ccccc2)C(=O)O)NC(=O)[C@H](C)NC1=O` (stereo partly shown) [Compound 25] was tested, and the antibacterial activity [1] was “also active against these test bacteria, but weaker than 24”.

For `C[C@H](NC(=O)[C@H]1NC(=O)[C@H](C)NC(=O)[C@@H](N)Cc2ccc(cc2)C1C(N)=O)C(=O)N[C@H](C(=O)N[C@H]1Cc2c[nH]c3cc(ccc23)C(CCCN)[C@@H](C(=O)N[C@@H](CO)C(=O)N[C@@H](Cc2ccccc2)C(=O)O)NC(=O)[C@H](CO)NC1=O)[C@@H](C)O` (stereo partly shown) [Compound 30], the antibacterial activity [1] was “no activity”.
